{"source": "patent US20110207655A1", "about": "“CYCLIC DEPSIPEPTIDE COMPOUND AND USE THEREOF” (Astellas Pharma Inc., priority 2008, published 2011)", "key": {"Gq/11": {"test_system": "Gq/11", "assay": "Inhibitory action on Gq/11: LTD4-induced cellular Ca2+ change in CHO cells stably expressing CysLTR2 (FLIPR)", "assay_type": "cell-based", "details": "read-out: Gq/11 inhibitory activities (IC50 values), 10 nM LTD4, maximum Fluo-4 fluorescence intensity", "description": "The test was carried out according to the method of Non-Patent Citation 3, using a leukotriene receptor CysLTR2 (cysteinyl leukotriene receptor 2), which is known to activate Gq/11. CHO cells stably expressing CysLTR2 were seeded on a 96-well black/clear bottom plate (manufactured by Becton, Dickinson and Company) at 20,000 cells per well, and after 24 hours of seeding, the medium was discarded. Then, Hanks BSS (GIBCO Inc.) including 2 μM Fluo-4, AM (manufactured by Molecular Probe Co.), 0.004% pluronic acid, 1% FBS, 20 mM HEPES, and 2.5 mM probenecid was added thereto at 100 μL per well, followed by incubation at 37° C. for 1 hour. After incubation, the resultant was washed four times with Hanks BSS including 20 mM HEPES, and Hanks BSS including 20 mm HEPES per well was added thereto 100 μL per well. In addition, 50 μL of a test compound that had been diluted with Hanks BSS including 20 mM HEPES to a final concentration from 1×10^−10 M to 1×10^−5 M was added thereto, followed by being left to stand at room temperature for 30 minutes. The change of cellular Ca^2+ concentration after addition of leukotriene D4 (LTD4, manufactured by Cayman Co.), which is a CysLTR2 ligand, was measured over time using an FLIPR (Molecular Device Corp.). 50 μL it of leukotriene D4 that had been diluted with Hanks BSS including 20 mM HEPES to a final concentration of 10 nM at 10 seconds after the initiation of measurement was added thereto, fluorescence intensities were measured every second for 50 seconds and every sixth second for 2 minutes, and a maximum fluorescence intensity during a measurement time of 3 minutes was observed. By plotting the concentrations and the fluorescence intensities of the test compounds, the IC50 values were calculated, which were taken as Gq/11 inhibitory activities."}, "[1]": {"test_system": "LTD4-induced airway contraction", "assay": "Action on the LTD4-induced airway contraction response by intratracheal administration", "assay_type": "in vivo, Hartley male guinea pigs", "details": "guinea pigs", "description": "Hartley male guinea pigs (Japan SLC, Inc.) were used in experiments. Urethane (1.2 g/kg) was administered intraperitoneally to the guinea pigs for anesthesia. Using needles (30 G), the test compounds (0.3, 1, and 3 μg/kg) at a volume of 0.5 mL/kg or physiological saline was administered by intratracheal injection (3 animals in each group). Cannulation for intravenous administration was carried out in the external jugular vein of the guinea pigs. A tracheostomy cannula was inserted through an incision in the trachea and mechanical ventilation (10 mL/kg, 60 times/min) was carried out using a mechanical ventilator (MODEL683, HARVARD). The mechanical ventilator circuit was connected with a pressure transducer (TP-400T, Nihon Kohden Corporation) and the change in airway pressure was measured. The airway pressure signal was amplified with a strain pressure amplifier (AP-601G, Nihon Kohden Corporation) and recorded on chart paper by a thermal pen recorder (LINEARCORDER F WR3701, Graphtec). The body temperature of the guinea pigs was maintained at 37° C. using a body temperature-maintaining device (BWT-100, Bio Research Center). At 30 minutes after injection by intratracheal administration of the test compound, a solution of LTD4 in physiological saline (0.3 μg/kg) was administered intravenously to induce the airway contraction response."}, "[2]": {"test_system": "ADP receptors (P2Y1, P2Y2)", "details": "in-vitro tests, Non-Patent Citation 3; cited from earlier work"}, "blood pressure": {"test_system": "blood pressure", "details": "intravenous 30 μg/kg, Non-Patent Citation 4; cited from earlier work"}, "[3]": {"test_system": "muscarinic receptors (M1)", "details": "in-vitro tests, Non-Patent Citation 3; cited from earlier work"}, "[4]": {"test_system": "tobacco smoke inhalation-induced airway inflammation", "assay": "Action of nasal drop administration on the tobacco smoke inhalation-induced airway inflammation", "assay_type": "in vivo, BALB/c male mice", "details": "mice, nasal drop 1, 10 and 100 μg/kg once a day; bronchoalveolar lavage cell count at Day 11", "description": "BALB/c male mice (Charles River Laboratories Japan, Inc.) were used in experiments. Sodium pentobarbital (40 mg/kg) was administered intraperitoneally to the mice for anesthesia. During a period of time ranging from Day 0 to Day 10 (except for Days 5 and 6), the test compound (1, 10, and 100 μg/kg) were administered nasally to the mice once a day. The Vehicle group was similarly injected with physiological saline by nasal drop administration. There were 10 animals in each group. The mice were put into chambers at 1 hour after nasal drop administration, and using a tobacco smoke generator (SG-200, Sibata Scientific Technology Ltd.), the tobacco smoke was inhaled to a concentration in air up to 4% for 1 hour. After intraperitoneal administration of sodium pentobarbital (80 mg/kg) to the mice at Day 11, the mice were subject to blood removal to be euthanized. After respiratory arrest, the trachea was incised, bronchoalveolar lavage was performed with PBS(−) 0.5 mL×3 times, and the washing liquid was collected. The supernatant was removed by centrifugation, the cells were then resuspended in PBS(−), and for white blood cells (WBC), neutrophils (NEUT), lymphocytes (LYMPH), macrophages (MONO), and eosinophils (EO), the cell count was measured with a Multiple Parameter Automatic Hematology Analyzer (XT-2000i, Sysmex Corporation)."}}, "note": "pIC50: −log10 of the molar value. Starred links: 1 amine or outer side, 2 acyl side, 3 side chain; linkers in the order of their positions; H or OH if unused. Positions of bridges follow the written chain, without caps; N, C: chain ends. Non-standard residues stand in square brackets, D forms with d. Residues, ends and D or L forms follow the SMILES beside them. Leu(3R-O(AcLeu(3R-OH))) = CC(=O)N[C@H](C(=O)O[C@H](C(C)C)[C@H](N)C(=O)O)[C@H](O)C(C)C; X1 = CO[C@H](C)C(C(=O)[*:2])N(C)[*:1]; dPhLac = O=C(O)[C@H](O)Cc1ccccc1; NMeA = CN[C@@H](C)C(=O)O; NMeDha = C=C(NC)C(=O)O", "data": [{"smiles": "C=C1C(=O)N[C@@H](C)C(=O)N(C)[C@@H](C)C(=O)N[C@@H]([C@H](OC(=O)[C@@H](NC(C)=O)[C@H](O)C(C)C)C(C)C)C(=O)N(C)C([C@@H](C)OC)C(=O)O[C@H](C)[C@H](NC(C)=O)C(=O)O[C@H](Cc2ccccc2)C(=O)N1C", "note": "(stereo partly drawn) [Ref 1] (Ac-T[dPhLac][NMeDha]A[NMeA][Leu(3R-O(AcLeu(3R-OH)))][X1]; ester 1-C)", "values": [{"measurement": "pIC50", "setting": "Gq/11", "result": 7.18}, {"measurement": "ED50", "setting": "[1]; Cavia porcellus, iv, intratracheal, 30 minutes before LTD4 0.3 μg/kg i.v., read-out: ED50 value of inhibition of LTD4-induced airway contraction", "result": 1.1, "unit": "µg/kg"}, {"measurement": "LTD4-induced airway contraction response", "setting": "[1]; intratracheal administration", "result": "inhibited"}, {"measurement": "reactions of ADP receptors (P2Y1, P2Y2)", "setting": "[2]", "result": "inhibits"}, {"measurement": "hypotensive action", "setting": "blood pressure", "result": "hypotensive action"}, {"measurement": "reactions of muscarinic receptors (M1)", "setting": "[3]", "result": "inhibits"}, {"measurement": "infiltration of eosinophils into the airway", "setting": "[4]", "result": "significantly inhibited"}, {"measurement": "infiltration of lymphocytes into the airway", "setting": "[4]", "result": "significantly inhibited"}, {"measurement": "infiltration of neutrophils into the airway", "setting": "[4]", "result": "significantly inhibited"}]}]}
